16 compounds from US12187713B2, “Immunomodulators, compositions and methods thereof” (Betta Pharmaceuticals Co., Ltd, priority 2019, dated 2025) can be followed below.

Series [1] deals with PD-1/PD-L1 (Homo sapiens (Human), UniProt Q9NZQ7). Nature of the series: PD-1/PD-L1 Binding Assay (Alphascreen). The method, boiled down: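 PD-1/PD-L1 binding detected by anti-6×His acceptor and streptavidin donor beads after 120 min in the dark at 25 °C. Beforehand, the two proteins were incubated 15 min at 25 °C with inhibitor at 0.015–300 nM (1% DMSO). IC50 comes from a log concentration–response curve.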

A short description of series [2]: Pharmacokinetic Assay, single oral dose 5 mg/kg (Table 12). The conditions noted are these: mouse, plasma concentration, C57 female mice, single oral dose 5 mg/kg. Type of series: in vivo. How it is done: Adult C57 female mice were received to single-dose of the test compounds with 15% DMSO, 10% Kolliphor^@HS 15 and 75% saline as excipients, the mice (n=3) were giving oral administration (intragastric administration) with the compounds at a dose of 5 mg/kg. Time of blood collection: 30 min, 2 h, 4 h. approximately 0.1 mL of whole blood was collected from retro-orbital venous plexus, and placed into tubes that contained K2-EDTA as an anticoagulant. The whole blood were centrifuged at 4° C. and 4000 rpm for 10 min. The plasma was transferred into centrifuge tubes, and stored at −20° C. until being analyzed. Concentrations of test compounds in the plasma samples were analyzed with liquid chromatography-tandem mass spectrometry (LC-MS/MS). Plasma concentration-time data of individual animals was analyzed using Microsoft Excel 2010.

Molecules are shown by their SMILES.

PD-1/PD-L1, sequence (Q9NZQ7 19-238): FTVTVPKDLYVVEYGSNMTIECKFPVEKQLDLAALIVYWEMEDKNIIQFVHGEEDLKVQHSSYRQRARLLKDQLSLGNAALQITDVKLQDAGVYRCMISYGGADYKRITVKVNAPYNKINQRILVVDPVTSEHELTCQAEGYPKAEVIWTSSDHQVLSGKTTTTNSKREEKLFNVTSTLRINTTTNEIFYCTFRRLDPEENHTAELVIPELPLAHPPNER

`Cc1c(-c2ccc(CN3CCCC3)c(C#N)c2)cccc1-c1cccc(-c2nc3cc(CN4CCC[C@H]4C(=O)O)c(OC(F)F)cc3o2)c1C` [Example 245, ((2-(3″-cyano-2,2′-dimethyl-4″-(pyrrolidin-1-ylmethyl)-[1,1′:3′,1″-terphenyl]-3-yl)-6-(difluoromethoxy)benzo[d]oxazol-5-yl)methyl)-L-proline] gave a half-inhibitory concentration (IC50) in series [1] (numeric values) of 3.8 nM. In series [2], the concentration at 0.5 h was found to be 101 ng/mL, the concentration at 2 h was 237 ng/mL and the concentration at 4 h was found to be 191 ng/mL.
In the case of `Cc1c(-c2nc3cc(CN4CCC[C@H]4C(=O)O)c(OC(F)F)cc3o2)cccc1-c1cccc(-c2nc3cc(CN(C)CC#N)cc(C#N)c3o2)c1C` [Example 136, ((2-(3′-(7-cyano-5-(((cyanomethyl) (methyl)amino)methyl)benzo [d]oxazol-2-yl)-2,2′-dimethyl-[1,1′-biphenyl]-3-yl)-6-(difluoromethoxy)benzo[d]oxazol-5-yl)methyl)-L-proline], the IC50 in series [1] (range symbols) fell in the range of 0.1 to 5 nM. In series [2], this compound displayed a concentration at 0.5 h of 673 ng/mL, a concentration at 2 h of 736 ng/mL and a concentration at 4 h of 545 ng/mL.
In the same order, the values of `Cc1c(-c2ccc(CN3Cc4ccccc4C3)c(F)c2)cccc1-c1cccc(-c2nc3cc(CN4CCC[C@H]4C(=O)O)c(OC(F)F)cc3o2)c1C` [Example 241, ((6-(difluoromethoxy)-2-(3″-fluoro-4″- (isoindolin-2-ylmethyl)-2,2′-dimethyl-[1,1′:3′,1″-terphenyl]-3-yl)benzo[d]oxazol-5-yl)methyl)proline] are 5 to 50 nM, 102 ng/mL, 234 ng/mL and 294 ng/mL.
The compound `COC1CCN(Cc2ccc(-c3cccc(-c4cccc(-c5nc6cc(CN7CCC[C@H]7C(=O)O)c(OC(F)F)cc6o5)c4C)c3C)cc2)C1` (stereo partly drawn) [Example 227, ((6-(difluoromethoxy)-2-(4″-((3-methoxypyrrolidin-1-yl)methyl)-2,2′-dimethyl-[1,1′:3′,1″-terphenyl]-3-yl)benzo[d]oxazol-5-yl)methyl)-L-proline] showed an IC50 in series [1] (numeric values) of 4.1 nM. For the same compound, in series [2], the concentration at 0.5 h stood at 36.9 ng/mL, the concentration at 2 h stood at 149 ng/mL and the concentration at 4 h was 114 ng/mL.
For the compound `COc1nc(-c2cccc(-c3cccc(-c4nc5cc(CN6CCC[C@H]6C(=O)O)c(OC(F)F)cc5o4)c3C)c2C)ccc1CN1CCC(C)(C)C1` [Example 294, ((6-(difluoromethoxy)-2-(3′-(5-((3,3-dimethylpyrrolidin-1-yl)methyl)-6-methoxypyridin-2-yl)-2,2′-dimethyl-[1,1′-biphenyl]-3-yl)benzo[d]oxazol-5-yl)methyl)-L-proline], the IC50 in series [1] (range symbols) is 0.1 to 5 nM. In series [2], this compound returned a concentration at 0.5 h of 80.4 ng/mL, a concentration at 2 h of 193 ng/mL and a concentration at 4 h of 186 ng/mL.
In the same order, the values of `Cc1c(-c2nc3c(o2)CCCC3)cccc1-c1cccc(-c2nc3cc(CN4CCC[C@H]4C(=O)O)c(OC(F)F)cc3o2)c1C` [Example 205, ((6-(difluoromethoxy)-2-(2,2′-dimethyl-3′-(4,5,6,7-tetrahydrobenzo[d]oxazol-2-yl)-[1,1′-biphenyl]-3-yl)benzo[d]oxazol-5-yl)methyl)proline] are 0.1 to 5 nM, 1000 ng/mL, 1440 ng/mL and 1420 ng/mL.
`Cc1c(-c2ccc(CN3CC[C@@H](c4ccccc4)C3)c(F)c2)cccc1-c1cccc(-c2nc3cc(CN4CCC[C@H]4C(=O)O)c(OC(F)F)cc3o2)c1C` [Example 248, ((6-(difluoromethoxy)-2-(3″-fluoro-2,2′-dimethyl-4″-(((S)-3-phenylpyrrolidin-1-yl)methyl)-[1,1′:3′,1″-terphenyl]-3-yl)benzo[d]oxazol-5-yl)methyl)proline] came in with an IC50 in series [1] (range symbols) of 5 to 50 nM. In series [2], this compound had a concentration at 0.5 h of 89 ng/mL, a concentration at 2 h of 271 ng/mL and a concentration at 4 h of 369 ng/mL.
On to `Cc1c(-c2ccc(CN3CCC(F)C3)cc2)cccc1-c1cccc(-c2nc3cc(CN4CCC[C@H]4C(=O)O)c(OC(F)F)cc3o2)c1C` (stereo partly shown) [Example 242, ((6-(difluoromethoxy)-2-(4″-((3-fluoropyrrolidin-1-yl)methyl)-2,2′-dimethyl-[1,1′:3′,1″-terphenyl]-3-yl)benzo[d]oxazol-5-yl)methyl)proline], for which the IC50 in series [1] (range symbols) is 0.1 to 5 nM. In series [2], this compound gave a concentration at 0.5 h of 90.4 ng/mL, a concentration at 2 h of 223 ng/mL and a concentration at 4 h of 202 ng/mL.
In series [1] (numeric values), `Cc1c(-c2nc3cc(CN4CCC[C@H]4C(=O)O)c(OC(F)F)cc3o2)cccc1-c1cccc(-c2nc3cc(CN4[C@H]5CC[C@@H]4CC5)c(OC(F)F)cc3o2)c1C` [Example 72, ((2-(3′-(5-(((1s,4s)-7-azabicyclo[2.2.1]heptan-7-yl)methyl)-6-(difluoromethoxy)benzo[d]oxazol-2-yl)-2,2′-dimethyl-[1,1′-biphenyl]-3-yl)-6-(difluoromethoxy)benzo[d]oxazol-5-yl)methyl)-L-proline] returned an IC50 of 0.98 nM. In series [2], the concentration at 0.5 h worked out at 42.6 ng/mL, the concentration at 2 h turned out to be 140 ng/mL and the concentration at 4 h came out at 132 ng/mL.
Regarding `Cc1c(-c2nc3cc(CN4CC=CC4)c(OC(F)F)cc3o2)cccc1-c1cccc(-c2nc3cc(CN4CCC[C@H]4C(=O)O)c(OC(F)F)cc3o2)c1C` [Example 70, ((6-(difluoromethoxy)-2-(3′-(6-(difluoromethoxy)-5-((2,5-dihydro-1H-pyrrol-1-yl)methyl)benzo[d]oxazol-2-yl)-2,2′-dimethyl-[1,1′-biphenyl]-3-yl)benzo[d]oxazol-5-yl)methyl)-L-proline], the IC50 in series [1] (numeric values) amounted to 3.3 nM. In series [2], the concentration at 0.5 h worked out at 36.4 ng/mL, the concentration at 2 h turned out to be 151 ng/mL and the concentration at 4 h came to 158 ng/mL.
In the same order, the values of `Cc1c(-c2nc3cc(CN4CCC[C@H]4C(=O)O)c(OC(F)F)cc3o2)cccc1-c1cccc(-c2ccc(CN3CCCC3)cc2F)c1C` [Example 253, ((6-(difluoromethoxy)-2-(2″-fluoro-2,2′-dimethyl-4″-(pyrrolidin-1-ylmethyl)-[1,1′:3′,1″- terphenyl]-3-yl)benzo[d]oxazol-5-yl)methyl)-L-proline] are 4.7 nM, 42.3 ng/mL, 199 ng/mL and 181 ng/mL.
In the same order, the values of `Cc1nc(-c2cccc(-c3cccc(-c4nc5cc(CN6CCC[C@H]6C(=O)O)c(OC(F)F)cc5o4)c3C)c2C)oc1CN1CCCC1` [Example 304, ((6-(difluoromethoxy)-2-(2,2′-dimethyl-3′-(4-methyl-5-(pyrrolidin-1-ylmethyl)oxazol-2-yl)-[1,1′-biphenyl]-3-yl)benzo[d]oxazol-5-yl)methyl)-L-proline] are 27 nM, 131 ng/mL, 150 ng/mL and 74.2 ng/mL.
In series [1] (range symbols), `Cc1c(-c2ccc(CN3CC[C@H](COCc4ccccc4)C3)c(F)c2)cccc1-c1cccc(-c2nc3cc(CN4CCC[C@H]4C(=O)O)c(OC(F)F)cc3o2)c1C` [Example 252, ((2-(4″-(((S)-3-((benzyloxy)methyl)pyrrolidin-1-yl)methyl)-3″-fluoro-2,2′-dimethyl-[1,1′:3′,1″- terphenyl]-3-yl)-6-(difluoromethoxy)benzo[d]oxazol-5-yl)methyl)proline] yielded an IC50 of 0.1 to 5 nM. In series [2], the concentration at 0.5 h is 694 ng/mL, the concentration at 2 h was 2870 ng/mL and the concentration at 4 h worked out at 4150 ng/mL.
Consider `Cc1c(-c2nc3cc(CN4CCC[C@H]4C(=O)O)c(OC(F)F)cc3o2)cccc1-c1cccc(-c2ccc(CN3CCCC3)s2)c1C` [Example 280, ((6-(difluoromethoxy)-2-(2,2′-dimethyl-3′-(5-(pyrrolidin-1-ylmethyl)thiophen-2-yl)-[1,1′-biphenyl]-3-yl)benzo[d]oxazol-5-yl)methyl)-L-proline], for which, in series [1] (numeric values), the IC50 came out at 5.7 nM. In series [2], this compound gave a concentration at 0.5 h of 33.6 ng/mL, a concentration at 2 h of 171 ng/mL and a concentration at 4 h of 113 ng/mL.
Compound `C=Cc1cc(-c2cccc(-c3cccc(-c4nc5cc(CN6CCC[C@H]6C(=O)O)c(OC(F)F)cc5o4)c3C)c2C)ncc1CN1CCCC1` [Example 274, ((6-(difluoromethoxy)-2-(2,2′-dimethyl-3′-(5-(pyrrolidin-1-ylmethyl)-4-vinylpyridin-2-yl)-[1,1′-biphenyl]-3-yl)benzo[d]oxazol-5-yl)methyl)-L-proline] showed an IC50 in series [1] (range symbols) of 0.1 to 5 nM.
Still for that read-out and setting: next, `Cc1c(-c2nc3cc(CN4CCC4C)c(OC(F)F)cc3o2)cccc1-c1cccc(-c2nc3cc(CN4CCC[C@H]4C(=O)O)c(OC(F)F)cc3o2)c1C` (stereo partly drawn) [Example 60, ((6-(difluoromethoxy)-2-(3′-(6-(difluoromethoxy)-5-((2-methylazetidin-1-yl)methyl)benzo[d]oxazol-2-yl)-2,2′-dimethyl-[1,1′-biphenyl]-3-yl)benzo[d]oxazol-5-yl)methyl)-L-proline]: 0.1 to 5 nM.
